Drawing on PubChem BioAssay (NCI), this text covers TGI for 16 molecules.

Holding throughout (assay): growth of human tumour cells (NCI), 48 h
Assay [1] concerns MALME-3M melanoma.
The test system of assay [2] is RXF 393 renal.
The subject of assay [3] is NCI-H23 lung.
Assay [4] relates to SK-MEL-28 melanoma.
The test system of assay [5] is SK-OV-3 ovarian.
Assay [6] concerns A498 renal.
The test system of assay [7] is HCT-15 colon.
Assay [8] deals with KM12 colon.
The test system of assay [9] is MOLT-4 leukemia.
The subject of assay [10] is NCI/ADR-RES ovarian.
Assay [11] deals with IGROV1 ovarian.
Assay [12] relates to COLO 205 colon.
Assay [13] deals with RPMI-8226 leukemia.
In assay [14] the test system is MDA-MB-231 breast.
Assay [15] relates to NCI-H226 lung.
Assay [16] deals with OVCAR-4 ovarian.
Assay [17] deals with CAKI-1 renal.
The subject of assay [18] is MCF7 breast.

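Results reflect a 48-hour exposure of cells in 96-well plates to compound at five concentrations. TGI is the concentration that stops growth completely.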

On to `C#CCOC(=O)C(N)CC(N)=O` (centres undefined), for which the TGI in [1], in [2], in [3], in assay [4], in assay [5] and in [6] was > 100 µM throughout. Besides, the TGI in assay [7], in [8], in assay [9], in assay [10], in assay [11] and in [12] was > 100 µM throughout. Moreover, the TGI in assay [13], in assay [14], in [15], in [16], in [17] and in [18] was > 100 µM in each case.

In the case of `CC1=C(O)C(=O)C=C2C1=CC=C1[C@@]2(C)CC[C@@]2(C)C3C[C@@H](C)C(=O)[C@@H](O)[C@]3(C)CC[C@]12C` (some centres undefined), the TGI in assay [1] was 3.97 µM; in [2], 3.49 µM; in assay [3], 3.6 µM; in [4], 4.17 µM; in [5], 22.2 µM; in assay [6] it was 12.4 µM. Also, the TGI turned out to be 3.73 µM in [7]; 19.6 µM in [8]; 3.21 µM in assay [9]; 9.55 µM in assay [10]; 3.28 µM in assay [11]; 3.05 µM in assay [12]. For the same molecule, the TGI is 5.08 µM in [13]; 3.75 µM in assay [14]; 11.1 µM in assay [15]; 11 µM in assay [16]; 2.83 µM in [17]; 11 µM in [18].

In the case of `Cc1ccc2c(c1C)C(=O)C1(C2)Cc2ccc3c(c2C1=O)CCC3` (centres undefined), the TGI in assay [1], in [2], in assay [3], in assay [4], in [5] and in assay [6] was > 100 µM each time. Besides, the TGI in [7], in assay [8], in assay [9], in assay [10], in assay [11] and in assay [12] was > 100 µM each time. In addition, the TGI in [13], in assay [14], in assay [15], in [16], in assay [17] and in [18] was > 100 µM throughout.

As to `COc1cc(CN=c2nc(N(C)C)ss2)cc(OC)c1OC`, the TGI in assay [1] is > 9.27 µM; in [2], > 10 µM; in [3], > 10 µM; in assay [4], > 10 µM; in assay [5], > 10 µM; in [6], > 10 µM. Further, the TGI in assay [7] is > 10 µM; in assay [8], > 10 µM; in assay [9], 7.18 µM; in assay [10] it was > 10 µM; in assay [11] it was > 10 µM; in assay [12] it was > 10 µM. For the same molecule, the TGI in [13] was > 7.37 µM; in assay [14], > 10 µM; in assay [15], > 10 µM; in assay [16], > 10 µM; in assay [17], > 10 µM; in assay [18], > 10 µM.

In the case of `COc1ccc2c(c1)/C(=C/c1c(O)[nH]c(=S)[nH]c1=O)C=N2`, the TGI in assay [1] is > 100 µM; in [2], 96.9 µM; in assay [3] it was > 100 µM; in [4], > 100 µM; in assay [5], > 100 µM; in assay [6], > 100 µM. The TGI in assay [7], in assay [8], in [9], in assay [10], in [11] and in assay [12] was > 100 µM throughout. Besides, the TGI in [14], in assay [15], in assay [16], in assay [17] and in [18] was > 100 µM each time.

For the molecule `O=C1c2ccccc2-c2nnc3c(c21)Cc1ccccc1C3`, the TGI in [1], in assay [2], in assay [3], in [4], in assay [5] and in assay [6] was > 10 µM each time. In addition, the TGI in assay [7], in [8], in [9], in assay [10], in assay [11] and in assay [12] was > 10 µM in each case. Also, the TGI in assay [13], in [14], in assay [15], in [16], in assay [17] and in [18] was > 10 µM in each case.

As to `COC(=O)C(=O)C(C(=O)C(=O)Nc1ccc(Cl)c(Cl)c1)c1nc2ccc(C(=O)c3ccccc3)cc2[nH]c1=O` (centres undefined), the TGI in assay [1], in assay [2], in assay [3], in [4], in assay [5] and in assay [6] was > 100 µM each time. Besides, the TGI in assay [8], in assay [9], in [10], in assay [11], in assay [13] and in [14] was > 100 µM throughout. For the same molecule, the TGI in assay [15], in assay [17] and in [18] was > 100 µM throughout.

`COc1ccc(/C=C/C(=O)c2cc(OC)cc(OC)c2)cc1`: the TGI was determined as 27.8 µM in assay [1]; 8.6 µM in [2]; 8.53 µM in assay [3]; 27 µM in assay [4]; 27.5 µM in assay [5]; 11.7 µM in assay [6]. Besides, the TGI was 7.9 µM in assay [7]; 2.23 µM in assay [8]; > 26.6 µM in assay [9]; 9.02 µM in assay [10]; 25.7 µM in [11]; 16.8 µM in [12]. The TGI in [13] is 26.1 µM; in assay [14] it was > 28.3 µM; in assay [15], 31.6 µM; in assay [16], 18 µM; in assay [17], 12.9 µM; in assay [18] it was 0.952 µM.

As to `COC(=O)c1c(O)c(C#N)c2[nH]c3ccccc3n2c1=O`, the TGI in assay [1], in assay [2], in [3], in assay [5], in assay [6] and in [7] was > 100 µM throughout. In addition, the TGI in assay [8], in [9], in assay [10], in assay [11], in assay [12] and in [13] was > 100 µM in each case. Besides, the TGI in [14], in assay [15], in assay [16], in assay [17] and in [18] was > 100 µM each time.

Turning to `CC(C)=CCC[C@@H](C)[C@H]1CC[C@@]2(C)[C@@H]3CC[C@H]4C(C)(C)[C@@H](O)CC[C@@]45C[C@@]35CC[C@]12C`, the TGI was > 100 µM in assay [1]; 45.1 µM in [2]; 50.7 µM in assay [3]; > 100 µM in assay [4]; > 100 µM in [5]; > 94.3 µM in assay [6]. The TGI in assay [7] is > 100 µM; in assay [8], > 100 µM; in [9], > 87.2 µM; in assay [10], 62.1 µM; in assay [11], 40.5 µM; in [12], > 100 µM. For the same molecule, the TGI in [13] is > 88.7 µM; in assay [14] it was > 64.6 µM; in assay [15] it was > 74.5 µM; in assay [16], > 100 µM; in assay [17], > 100 µM; in assay [18], > 100 µM.

On to `COc1cccc(OC)c1C1ON=C(c2ccccc2)N1C12CC3CC(CC(C3)C1)C2` (centres undefined), for which the TGI in assay [1] is > 100 µM; in assay [2], 11.9 µM; in [3] it was > 100 µM; in assay [4] it was > 100 µM; in assay [5] it was > 100 µM; in assay [6] it was > 100 µM. For the same molecule, the TGI in assay [7], in assay [8], in [9], in assay [10], in assay [11] and in assay [12] was > 100 µM throughout. Moreover, the TGI in assay [13], in assay [14], in assay [15], in [17] and in [18] was > 100 µM each time.

With `N=c1sc2ccccc2n1CCS` (tested in a mixture with another compound), the TGI in assay [1] came to 37.6 µM; in [2], 48.5 µM; in assay [3], 32.3 µM; in assay [4] it was 41.4 µM; in assay [5] it was 53.6 µM; in assay [6], 33.2 µM. Besides, the TGI in assay [7] was found to be 34.6 µM; in assay [8], 35.5 µM; in assay [9], 8.45 µM; in [10], 45.3 µM; in [11], 27.5 µM; in assay [12], 27.5 µM. The TGI was 35.9 µM in assay [14]; 35.3 µM in [15]; 46.9 µM in assay [16]; 45.8 µM in assay [17]; 25.6 µM in [18].

In the case of `O=C1C2C3C4C1C1C2[C@H](OCc2ccccc2)C3C1[C@H]4OCc1ccccc1` (some centres undefined), the TGI in [1], in assay [2], in assay [3], in assay [4], in [5] and in [6] was > 100 µM throughout. Moreover, the TGI in assay [7] was 57.9 µM; in [8], > 100 µM; in assay [9], > 100 µM; in [10] it was 54.8 µM; in [11] it was > 100 µM; in assay [12] it was 82.5 µM. Moreover, the TGI in [13], in [14], in assay [15], in assay [16], in assay [17] and in assay [18] was > 100 µM throughout.

With `C=C1c2nc3ccccc3n2C=C(c2ccc(OC)cc2)N1c1ccc(OCCN2CCCCC2)cc1`, the TGI in [1] was > 100 µM; in assay [2], > 77 µM; in assay [3] it was > 61.4 µM; in assay [4], > 100 µM; in assay [5] it was > 100 µM; in assay [6] it was > 84.5 µM. Also, the TGI in assay [7] was > 100 µM; in assay [8], > 100 µM; in assay [9], 38.6 µM; in assay [10], > 86.4 µM; in [11], > 100 µM; in assay [12], 36.4 µM. Further, the TGI in [13] is 18.1 µM; in [14], > 64.7 µM; in assay [15], > 96.7 µM; in assay [16], > 100 µM; in assay [17], > 100 µM; in assay [18] it was > 100 µM.

With `NS(=O)(=O)c1ccc(NC(=S)NC(=O)Nc2ccc(Cl)c(Cl)c2)cc1`, the TGI in assay [1] was found to be 33.5 µM; in assay [2], 35.4 µM; in [3] it was 33.7 µM; in [4] it was 43.5 µM; in assay [5], 38.9 µM; in assay [6] it was 7.51 µM. For the same molecule, the TGI in [7] came to 29.8 µM; in assay [8] it was 28.3 µM; in assay [9] it was 49.6 µM; in assay [10] it was 44.6 µM; in [11], 39.2 µM; in assay [12] it was 32.3 µM. The TGI in [13] was > 85.3 µM; in assay [14], 33.5 µM; in assay [15], 43.8 µM; in assay [16], 44.1 µM; in assay [17], 40.1 µM; in assay [18], 30.2 µM.

Turning to `O=C1c2cc(Br)ccc2-c2ccc3c4ccc5c6c(ccc(c7ccc1c2c73)c64)C(=O)c1cc(Br)ccc1-5`, the TGI in assay [1], in assay [2], in [3], in [4], in assay [5] and in [6] was > 100 µM throughout. Also, the TGI in [7], in [8], in assay [10], in assay [11], in assay [12] and in assay [13] was > 100 µM in each case. In addition, the TGI in [14], in assay [15], in [17] and in assay [18] was > 100 µM throughout.
